In patent publication US20010039255A1, “Use of alpha1A adrenoceptor agonists with alpha1B and alpha1D antagonism for the treatment of stress urinary incontinence” (priority 2000, published 2001):
Where two headings read alike, the source gives them in different places.

What was measured:
[1] = target: T1, α1A adrenoceptor (rabbit urethra) (Oryctolagus cuniculus, UniProt O02824); assay: Rabbit urethra α1A subtype tissue bath; format: cell-based
T1 sequence (O02824 1-466): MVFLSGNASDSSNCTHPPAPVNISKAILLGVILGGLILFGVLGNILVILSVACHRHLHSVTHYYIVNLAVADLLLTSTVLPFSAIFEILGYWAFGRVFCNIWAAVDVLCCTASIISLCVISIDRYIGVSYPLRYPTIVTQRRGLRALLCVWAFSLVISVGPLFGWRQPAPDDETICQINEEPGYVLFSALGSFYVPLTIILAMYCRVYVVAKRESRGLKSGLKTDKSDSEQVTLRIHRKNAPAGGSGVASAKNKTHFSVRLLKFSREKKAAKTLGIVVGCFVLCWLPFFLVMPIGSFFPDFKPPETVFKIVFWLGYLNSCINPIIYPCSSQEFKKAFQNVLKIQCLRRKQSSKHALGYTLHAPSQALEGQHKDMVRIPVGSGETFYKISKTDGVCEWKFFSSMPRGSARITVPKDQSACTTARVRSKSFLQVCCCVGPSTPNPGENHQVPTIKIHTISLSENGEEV
Excerpt: Rabbit Urethra α1A Subtype
A cumulative concentration protocol was employed. […] Br. J. Pharmacol. 14, 48-58.

[2] = target: T2, α1D adrenoceptor (rat aorta) (Rattus norvegicus, UniProt P23944); settings: for α1D efficacy: percent of phenylephrine (100%) contraction; for α1D r: Schild plot regression correlation; for α1D slope: Schild plot slope; for type of antagonism at α1D: based on slope and regression (r) of Schild plot
T2 sequence (P23944 1-561): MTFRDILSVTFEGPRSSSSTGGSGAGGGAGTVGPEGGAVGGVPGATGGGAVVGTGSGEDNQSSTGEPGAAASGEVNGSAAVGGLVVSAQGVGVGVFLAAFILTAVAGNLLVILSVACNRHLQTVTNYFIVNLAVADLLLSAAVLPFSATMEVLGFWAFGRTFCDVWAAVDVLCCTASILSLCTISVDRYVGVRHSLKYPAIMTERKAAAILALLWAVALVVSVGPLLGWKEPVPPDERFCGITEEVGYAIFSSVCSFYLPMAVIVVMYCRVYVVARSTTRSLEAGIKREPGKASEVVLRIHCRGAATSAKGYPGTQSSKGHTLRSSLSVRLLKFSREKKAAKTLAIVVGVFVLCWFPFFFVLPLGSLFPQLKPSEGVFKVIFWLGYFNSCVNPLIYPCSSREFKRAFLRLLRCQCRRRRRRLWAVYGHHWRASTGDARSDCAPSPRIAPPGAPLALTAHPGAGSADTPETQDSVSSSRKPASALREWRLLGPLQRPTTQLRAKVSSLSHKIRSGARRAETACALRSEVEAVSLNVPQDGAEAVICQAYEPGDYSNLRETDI

[3] = target: T3, α1d (rat receptor expressed in mouse fibroblasts) (Rattus norvegicus, UniProt P23944); assay: Radioligand binding with [3H]-prazosin, α1d (rat receptor expressed in mouse fibroblasts)
T3 construct: expressed in transfected cells; host or cells: mouse fibroblasts
T3 sequence (P23944 1-561): T2 sequence (P23944 1-561)

[4] = target: T4, α1b (hamster receptor expressed in mouse fibroblasts) (Mesocricetus auratus, UniProt P18841); assay: Radioligand binding with [3H]-prazosin, α1b (hamster receptor expressed in mouse fibroblasts)
T4 construct: expressed in transfected cells; host or cells: mouse fibroblasts
T4 sequence (P18841 1-515): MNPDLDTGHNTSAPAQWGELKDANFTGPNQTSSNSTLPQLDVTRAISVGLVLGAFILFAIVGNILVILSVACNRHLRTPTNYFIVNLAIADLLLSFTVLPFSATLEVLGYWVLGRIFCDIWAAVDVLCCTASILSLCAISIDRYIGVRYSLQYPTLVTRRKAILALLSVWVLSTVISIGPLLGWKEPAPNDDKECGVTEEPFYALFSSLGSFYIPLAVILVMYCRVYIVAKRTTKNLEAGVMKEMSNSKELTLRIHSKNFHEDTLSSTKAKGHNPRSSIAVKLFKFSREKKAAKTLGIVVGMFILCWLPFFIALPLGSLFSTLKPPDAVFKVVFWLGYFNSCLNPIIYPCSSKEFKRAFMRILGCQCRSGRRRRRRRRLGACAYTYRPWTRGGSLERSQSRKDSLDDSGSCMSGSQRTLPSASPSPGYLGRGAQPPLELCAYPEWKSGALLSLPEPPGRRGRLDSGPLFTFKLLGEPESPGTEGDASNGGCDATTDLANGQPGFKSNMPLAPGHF
Excerpt: Radioligand Binding Ki (nM)
Exp. Ther. (1995), 274, 97-103.

[5] = target: T5, α1A (rat submaxillary gland) (Rattus norvegicus, UniProt P43140); assay: Radioligand binding with [3H]-prazosin, α1A (rat submaxillary gland)
T5 construct: from tissue; host or cells: rat submaxillary gland
T5 sequence (P43140 1-466): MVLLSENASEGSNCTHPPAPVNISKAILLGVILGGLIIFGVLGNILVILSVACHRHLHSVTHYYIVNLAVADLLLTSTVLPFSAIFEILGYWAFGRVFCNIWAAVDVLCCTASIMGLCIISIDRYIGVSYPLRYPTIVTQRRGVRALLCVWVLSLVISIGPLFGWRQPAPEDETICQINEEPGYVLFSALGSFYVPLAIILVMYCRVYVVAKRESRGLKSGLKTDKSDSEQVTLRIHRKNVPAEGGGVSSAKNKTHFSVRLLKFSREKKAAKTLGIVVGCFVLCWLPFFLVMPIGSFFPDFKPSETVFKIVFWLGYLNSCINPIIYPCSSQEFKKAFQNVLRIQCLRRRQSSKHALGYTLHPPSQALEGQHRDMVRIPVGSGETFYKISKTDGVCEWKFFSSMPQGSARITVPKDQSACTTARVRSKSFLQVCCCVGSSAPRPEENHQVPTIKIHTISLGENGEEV

[6] = target: T6, α1B adrenoceptor (rat spleen) (Rattus norvegicus, UniProt P15823); settings: for α1B r: Schild plot regression correlation; for α1B slope: Schild plot slope; for type of antagonism at α1B: based on slope and regression (r) of Schild plot
T6 sequence (P15823 1-515): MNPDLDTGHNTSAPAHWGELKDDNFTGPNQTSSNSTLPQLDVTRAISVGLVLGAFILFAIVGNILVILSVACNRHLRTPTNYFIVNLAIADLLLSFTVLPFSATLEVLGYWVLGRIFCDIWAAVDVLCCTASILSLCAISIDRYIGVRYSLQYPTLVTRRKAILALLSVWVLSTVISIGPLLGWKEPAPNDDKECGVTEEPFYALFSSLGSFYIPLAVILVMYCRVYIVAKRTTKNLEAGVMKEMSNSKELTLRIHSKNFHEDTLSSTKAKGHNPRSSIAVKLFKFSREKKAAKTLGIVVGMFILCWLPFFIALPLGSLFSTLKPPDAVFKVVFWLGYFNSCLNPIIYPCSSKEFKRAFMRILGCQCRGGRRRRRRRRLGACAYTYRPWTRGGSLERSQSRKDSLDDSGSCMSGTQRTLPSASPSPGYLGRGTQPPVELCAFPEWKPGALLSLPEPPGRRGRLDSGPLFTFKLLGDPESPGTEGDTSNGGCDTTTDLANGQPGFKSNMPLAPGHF
Excerpt: A cumulative concentration protocol was employed.

Female Beagle dogs = settings: for IUP ED5mmHg: dose producing 5 mmHg increase in intraurethral pressure; for effect on intraurethral pressure and mean arterial pressure: increasing i.v. doses, dogs, FIGS. 1-4
Excerpt: Female Beagle dogs (Marshall Farms, North Rose, N.Y.) greater that 2 years of age and weighing between 12 and 15 kg were used in these studies. At least 2 weeks prior to any agonist dosing, dogs were instrumented for the chronic measurement of arterial blood pressure by implanting a telemetry transducer/transmitter (TA11PA-C40, Data Sciences International, St. Paul, Minn.) into a carotid artery.
On the test day, dogs fasted since the previous afternoon were pre-anesthetized with thiopental sodium 15 mg/kg i.v. (Pentothal™, Abbott) and intubated. Anesthesia was maintained by allowing the dog to spontaneously breathe a mixture of isoflurane (2.5 to 3 volume %) and oxygen delivered by a Narkomed Standard anesthesia system (North American Drager, Telford, Pa.). An Abbocath-T™ i.v. catheter (18-G, Abbott Laboratories, Abbott Park, Ill.) was inserted into the cephalic vein for the administration of agonists. A telemetry receiver (RA1310, DataSciences) was placed under the head of each dog and was interfaced to a computerized data acquisition system (Modular Instruments Inc.(MI2), Malvern, Pa.) which allowed for the continuous calibrated recording of arterial blood pressure which was electronically filtered to determine its mean value (MAP).
Intraurethral pressure was monitored using a balloon catheter technique previously described (Brune et al., Drug Development Research 34:267-275,1995). Briefly, a 7 Fr catheter balloon catheter (41224-01, Abbott) was inserted into the urethral orifice and advanced approximately 15 cm until the tip was well inside the bladder. The balloon was then inflated with 1 ml of room air and the catheter slowly withdrawn until resistance (corresponding to the bladder neck) was evident. The balloon was then deflated and the catheter withdrawn an additional 2 cm. The balloon was then reinflated and its catheter port connected to a Gould Statham P23Dd pressure transducer interfaced to a computerized data acquisition system (Modular Instruments, Inc., Malvern, Pa.) for the measurement of intraurethral pressure (IUP). The MAP and IUP pressor responses to increasing iv doses of test agonists were obtained simultaneously. The pressor effects of each dose were allowed to return to baseline before the next dose was given.
The dose required to elicit significant and clinically meaningful changes in IUP (5 mm Hg) relative to the dose required to elicit a physiologically significant increase in blood pressure (20 mm Hg) is calculated.
IUP and MAP pressor effects of each agonist dose were expressed as the maximum net change in each pressure over pre-dose baseline levels. Subsequently, the effective doses required to produce a 5 mmHg increase in IUP (IUP ED5mmHg) and a 20 mmHg increase in MAP (MAP ED20mmHg) were estimated from the dose response data from each dog. Relative urethral versus vascular selectivity of each agonist in each dog was estimated using a ratio of these respective potency indices (MAP ED20mmHg/IUP ED5mmHg).

[7] = target: T2, α1D adrenoceptor (rat aorta); assay: cell-based
[8] = i.v., anesthetized dogs, mean ± S.E.M
[9] = i.v., anesthetized dogs, dose producing 20 mmHg increase in mean arterial pressure, mean ± S.E.M

Row | Compound | α1D efficacy ([2]; rat aorta) | IUP ED5mmHg (Female Beagle dogs; [8]) | MAP ED20mmHg (Female Beagle dogs; [9]) | effect on intraurethral pressure and mean arterial pressure (Female Beagle dogs) | α1D r ([2]; rat aorta) | α1D slope ([2]; rat aorta) | type of antagonism at α1D [2] | Ki [3] | Ki [4] | Ki [5] | α1B r ([6]; rat spleen) | α1B slope ([6]; rat spleen) | type of antagonism at α1B [6] | further results
1 | CC(N)C(O)c1ccccc1 (centres unmarked) [PPA, phenylpropanolamine, reference compound] | 91% | 1092 ± 384 nmol/kg | 331 ± 80 nmol/kg | dose-dependent increases |  |  |  |  |  |  |  |  |  | α1A agonist activity (in words) [1]: weak agonist; α1A efficacy ([1]; percent of phenylephrine (100%) contraction): 68%; α1D agonist activity (in words; merged pD2/efficacy cell) ([2]; rat aorta): weak agonist; α1d binding (in words) ([3]; rat receptor expressed in mouse fibroblasts, [3H]-prazosin): weak adrenergic ligand; α1b binding (in words) ([4]; hamster receptor expressed in mouse fibroblasts, [3H]-prazosin): weak adrenergic ligand; Radioligand Binding Ki α1A (Rat) ([5]; rat submaxillary gland, [3H]-prazosin): weak adrenergic ligand; α1B efficacy ([6]; percent of phenylephrine (100%) contraction, rat spleen): 34%; α1B agonist activity (in words; merged pD2/efficacy cell) ([6]; rat spleen): weak agonist; Selectivity ratio MAP ED20/IUP ED5 (Female Beagle dogs; calculated for each dog and then averaged): 0.4
2 | CCS(=O)(=O)Nc1cccc(Cc2c[nH]cn2)c1 [Compound A-286666] |  |  |  |  | 0.9 | 0.93 | competitive antagonist | 0.287 ± 0.041 µM | 0.913 ± 0.135 µM | 0.137 ± 0.015 µM | 0.9 | 0.81 | competitive antagonist | 
3 | CS(=O)(=O)Nc1c(O)ccc2c1CCCC2C1=NCCN1 (centres unmarked) [Compound A-61603, reference compound] | 100% | 0.16 ± 0.02 nmol/kg |  | dose-dependent increases |  |  |  | 1.56 ± 0.169 µM |  |  |  |  |  | EC50 [7]: 2.51 µM; Ki ([4]; hamster receptor expressed in mouse fibroblasts, [3H]-prazosin, read-out: Radioligand Binding Ki α1b (Hamster)): 1.21 µM; MAP ED20mmHg (Female Beagle dogs; female, Beagle, dog, in vivo, iv): 0.27 ± 0.05 nmol/kg
4 | CCS(=O)(=O)Nc1cccc(Cc2c[nH]cn2)c1C [Compound A-286569] |  | 41.9 ± 6.2 nmol/kg | 201.6 ± 67 nmol/kg | dose-dependent increases | 0.5 | 1.1 | non-competitive antagonist | 0.84 ± 0.078 µM | > 10 µM | 0.15 ± 0.032 µM | 0.6 | 1.3 | non-competitive antagonist | 
